Measured values as given in ChEMBL document CHEMBL4422615, “Novel non-xanthine antagonist of the A2B adenosine receptor: From HTS hit to lead structure” (Eur J Med Chem, 2019).
In brackets after ≈: the same amount, converted by molar mass. Activity calls are given as the source filed them. No cut-off for these calls is given here.

How the values were obtained:
Mus musculus [1] = experiment: Antifibrotic activity in FITC-induced C57BL/6J mouse pulmonary fibrosis model assessed as reduction in IL-6 level in lung tissue homogenate at 100 to 500 mg/kg, bid administered via gavage pretreated for 45 mins before FITC addition until 72 hrs after FITC application by ELISA; type: functional, organism-based
[2] = Clearance in rat plasma at 0.3 mg/kg, iv administered as bolus dose by HPLC-MS/MS analysis; type: ADME, organism-based
Mus musculus [3] = experiment: Antifibrotic activity in FITC-induced C57BL/6J mouse pulmonary fibrosis model assessed as reduction in total number of cells in BALF at 100 to 500 mg/kg, bid administered via gavage pretreated for 45 mins before FITC addition until 72 hrs after FITC application; type: functional, organism-based
[4] = Half life in mouse at 0.3 mg/kg, iv administered as bolus dose by HPLC-MS/MS analysis; type: ADME, organism-based; conditions: in vivo
[5] = Oral bioavailability in mouse at 1 mg/kg administered as bolus dose by HPLC-MS/MS analysis; type: ADME, organism-based; conditions: in vivo
[6] = Dose normalized Cmax in rat at 1 mg/kg, po for 15 mins by HPLC-MS/MS analysis; type: ADME, organism-based; conditions: in vivo, 0.25 h
Mus musculus [7] = experiment: Antifibrotic activity in FITC-induced C57BL/6J mouse pulmonary fibrosis model assessed as reduction in lung weight at 100 to 500 mg/kg, bid administered via gavage pretreated for 45 mins before FITC addition until 72 hrs after FITC application; type: functional, organism-based
[8] = MRT in mouse at 1 mg/kg, iv administered as bolus dose by HPLC-MS/MS analysis; type: ADME, organism-based; conditions: in vivo
PXR = molecular target: T1, PXR (Homo sapiens, UniProt O75469); experiment: Activation of PXR in human HepG2 cells assessed as induction of CYP3A4 expression at 2 x 10^-9 to 50 x 10^-6 mol/L by luciferase reporter gene assay relative to control; type: ADME, cell-based
T1 sequence (O75469 whole entry): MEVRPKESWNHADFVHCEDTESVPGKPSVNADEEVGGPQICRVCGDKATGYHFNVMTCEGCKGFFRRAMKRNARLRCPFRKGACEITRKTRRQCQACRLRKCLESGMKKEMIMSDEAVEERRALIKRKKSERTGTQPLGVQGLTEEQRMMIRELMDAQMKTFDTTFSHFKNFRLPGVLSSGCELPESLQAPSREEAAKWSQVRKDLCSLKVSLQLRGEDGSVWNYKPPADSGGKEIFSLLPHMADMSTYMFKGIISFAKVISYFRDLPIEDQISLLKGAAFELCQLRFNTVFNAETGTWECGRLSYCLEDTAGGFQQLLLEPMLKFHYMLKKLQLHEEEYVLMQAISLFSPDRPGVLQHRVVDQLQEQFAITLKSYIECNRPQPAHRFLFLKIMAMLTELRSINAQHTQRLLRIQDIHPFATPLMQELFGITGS

[9] = Aqueous solubility of the compound in phosphate buffer at pH 6.5 after 24 hrs by LC/MS/MS analysis; type: physicochemical
Adenosine receptor A1 = molecular target: T2, Adenosine receptor A1 (Homo sapiens, UniProt P30542); experiment: Displacement of [3H]DPCPX from human A1 adenosine receptor expressed in CHO cell membranes after 60 mins by radioligand displacement assay
T2 sequence (P30542 whole entry): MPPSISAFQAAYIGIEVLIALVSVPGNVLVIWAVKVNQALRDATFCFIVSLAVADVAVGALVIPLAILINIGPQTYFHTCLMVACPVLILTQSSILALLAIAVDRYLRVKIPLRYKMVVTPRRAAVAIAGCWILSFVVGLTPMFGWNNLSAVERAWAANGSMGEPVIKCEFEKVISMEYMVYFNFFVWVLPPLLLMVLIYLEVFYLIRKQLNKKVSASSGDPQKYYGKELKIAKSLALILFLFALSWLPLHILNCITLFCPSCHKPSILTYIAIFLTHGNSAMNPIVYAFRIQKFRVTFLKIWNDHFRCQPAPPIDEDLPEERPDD

Mus musculus [10] = experiment: Antifibrotic activity in silica-induced C57BL/6J mouse pulmonary fibrosis model assessed as reduction in TGF-beta level in lung tissue homogenate at 100 to 500 mg/kg, bid administered via gavage treated from day 1 until day 7 after silica application by ELISA; type: functional, organism-based
[11] = Partition coefficient, log P of the compound; type: physicochemical; conditions: octanol/water
[12] = Dose normalized AUC in rat at 1 mg/kg, po for 15 mins by HPLC-MS/MS analysis; type: ADME, organism-based; conditions: in vivo, 0.25 h
[13] = Fraction unbound in rat plasma by equilibrium dialysis method; type: ADME, cell-free
[14] = Fraction unbound in human plasma by equilibrium dialysis method; type: ADME, cell-free
[15] = Toxicity in FITC-induced C57BL/6J mouse pulmonary fibrosis model assessed as change in body weight administered as bid dose via gavage pretreated for 45 mins before FITC addition until 72 hrs after FITC application; conditions: in vivo, po
[16] = Blood clearance in human by measuring intrinsic clearance in human hepatocytes by MS/MS analysis; type: ADME, cell-based
[17] = Dose normalized Cmax in dog at 1 mg/kg, po for 15 mins by HPLC-MS/MS analysis; type: ADME, organism-based, Canis lupus familiaris; conditions: in vivo, 0.25 h
Adenosine receptor A2b = molecular target: T3, Adenosine receptor A2b (Mus musculus, UniProt Q60614); experiment: Antagonist activity at recombinant mouse A2B adenosine receptor expressed in CHO cells after 3 to 4 hrs by luciferase reporter gene assay; type: cell-based
T3 sequence (Q60614 whole entry): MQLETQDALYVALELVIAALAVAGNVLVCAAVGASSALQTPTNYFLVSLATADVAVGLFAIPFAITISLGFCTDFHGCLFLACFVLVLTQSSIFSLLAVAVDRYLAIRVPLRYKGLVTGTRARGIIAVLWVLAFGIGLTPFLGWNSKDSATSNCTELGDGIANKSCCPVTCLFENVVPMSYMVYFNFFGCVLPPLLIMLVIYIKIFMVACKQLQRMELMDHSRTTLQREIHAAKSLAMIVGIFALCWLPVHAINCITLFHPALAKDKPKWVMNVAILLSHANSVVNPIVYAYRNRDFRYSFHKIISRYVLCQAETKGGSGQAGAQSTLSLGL

[18] = Dose normalized AUC in dog at 1 mg/kg, po for 15 mins by HPLC-MS/MS analysis; type: ADME, organism-based, Canis lupus familiaris; conditions: in vivo, 0.25 h
[19] = Plasma clearance in mouse; type: ADME, organism-based
[20] = MRT in rat at 0.3 mg/kg, iv administered as infusion for 15 mins by HPLC-MS/MS analysis; type: ADME, organism-based; conditions: in vivo
[21] = Half life in mouse at 1 mg/kg, iv administered as bolus dose by HPLC-MS/MS analysis; type: ADME, organism-based; conditions: in vivo
[22] = MRT in dog at 1 mg/kg, po for 15 mins by HPLC-MS/MS analysis; type: ADME, organism-based, Canis lupus familiaris; conditions: in vivo
[23] = Intrinsic clearance in rat hepatocytes by MS/MS analysis; type: ADME, cell-based, Hepatocyte
Mus musculus [24] = experiment: Antifibrotic activity in silica-induced C57BL/6J mouse pulmonary fibrosis model assessed as reduction in lung weight at 100 to 500 mg/kg, bid administered via gavage treated from day 1 until day 7 after silica application; type: functional, organism-based
Mus musculus [25] = experiment: Antifibrotic activity in FITC-induced C57BL/6J mouse pulmonary fibrosis model assessed as reduction in osteopontin level in BALF at 100 to 500 mg/kg, bid administered via gavage pretreated for 45 mins before FITC addition until 72 hrs after FITC application by ELISA; type: functional, organism-based

## CCn1c(=O)c2c(C)c(C(=O)N3CCC(O)CC3)sc2n(CCC(F)(F)F)c1=O
Mus musculus [1]
  Activity: Active
[2]
  clearance: 18.3 mL/min/kg
Mus musculus [3]
  Activity: Active
[4]
  half-life: 1.2 h
[5]
  bioavailability: 65%
[6]
  Cmax/dose: 0.33 kg/L
Mus musculus [7]
  Activity: Active
[8]
  MRT: 1.2 h
PXR
  Emax: 16%
[9]
  solubility at 24 h: 410 µg/mL (≈ 946 µM)
Adenosine receptor A1
  Ki: > 1000 nM
Mus musculus [10]
  Activity: Active
[11]
  logP: 1.99
[12]
  AUC/dose: 0.78 kg·h/L
[13]
  fraction unbound: 0.7
[14]
  fraction unbound: 0.6
[15]
  Activity: Non-Toxic
[16]
  CLhep predicted: < 3.5 mL/min/kg
[17]
  Cmax/dose: 0.61 kg/L
Adenosine receptor A2b
  IC50: 400 nM
[18]
  AUC/dose: 2 kg·h/L
[19]
  clearance: 10.2 mL/min/kg
[20]
  MRT: 1.3 h
[21]
  half-life: 2.1 h
[22]
  MRT: 4.4 h
[23]
  CLhep predicted: 23.3 mL/min/kg
Mus musculus [24]
  Activity: Active
Mus musculus [25]
  Activity: Active
